Assay results as given in patent US20020035061A1, “COMPOSITIONS AND METHODS FOR TREATING INFECTIONS USING CATIONIC PEPTIDES ALONE OR IN COMBINATION WITH ANTIBIOTICS” (priority 1996, published 2002).
Converted amounts (≈) assume the structure as drawn. “And” between values parts separate entries of the source, which are not always exact repeats. Equal values may be shown once. Read-outs that look alike come from different tables or passages of the source.

Tests used:
Assay in all cases: microbe, parasite or virus in culture
Format in all cases: cell-based
bacterial isolates = test system: bacterial isolates
[1] = test system: inherently resistant microorganisms
[2] = test system: microorganisms with acquired resistance; details: Pseudomonas aeruginosa, read-out: Amikacin MIC Alone, P. aeruginosa PA022
[3] = test system: vancomycin / teicoplanin resistant enterococci
[4] = Enterococcus faecalis, read-out: Amikacin MIC Alone, E. faecalis EFS008
[5] = Enterococcus faecium, read-out: Amikacin MIC Alone, E. faecium EFM004

NCC[C@H](O)C(=O)N[C@@H]1C[C@H](N)[C@@H](O[C@H]2O[C@H](CN)[C@@H](O)[C@H](O)[C@H]2O)[C@H](O)[C@H]1O[C@H]1O[C@H](CO)[C@@H](O)[C@H](N)[C@H]1O [Amikacin]
Amikacin MIC Alone (bacterial isolates; A. baumannii ABI001): 32 µg/mL | MIC (bacterial isolates; Acinetobacter baumannii, read-out: Amikacin MIC Alone, A. baumannii ABI001): 64 µg/mL (≈ 109 µM) | MIC (bacterial isolates; Acinetobacter baumannii, read-out: Amikacin MIC Alone, A. baumannii ABI003): 16 µg/mL (≈ 27.3 µM) | Amikacin MIC Alone (bacterial isolates; B. cepacia BC005): 128 µg/mL | MIC (bacterial isolates; Burkholderia cepacia, read-out: Amikacin MIC Alone, B. cepacia BC003): 32 µg/mL (≈ 54.6 µM) | MIC (bacterial isolates; Burkholderia cepacia, read-out: Amikacin MIC Alone, B. cepacia BC005): 64 µg/mL (≈ 109 µM) | Amikacin MIC Alone (bacterial isolates; E. faecalis EFS008): 64 µg/mL | Amikacin MIC Alone (bacterial isolates; E. faecium EFM004): >128 µg/mL | MIC (bacterial isolates; [4]): 32 µg/mL (≈ 54.6 µM) | MIC (bacterial isolates; [5]): 128 µg/mL (≈ 219 µM) | MIC (bacterial isolates; Escherichia coli, read-out: Amikacin MIC Alone, E. coli ECO022): 16 µg/mL (≈ 27.3 µM) | Amikacin MIC Alone (bacterial isolates; P. aeruginosa PA022): 128 µg/mL | MIC (bacterial isolates; Pseudomonas aeruginosa, read-out: Amikacin MIC Alone, P. aeruginosa PA022): 64 µg/mL (≈ 109 µM) | MIC (bacterial isolates; Pseudomonas aeruginosa, read-out: Amikacin MIC Alone, P. aeruginosa PA037): 16 µg/mL (≈ 27.3 µM) | Amikacin MIC Alone (bacterial isolates; S. epidermidis SE003): 64 µg/mL | Amikacin MIC Alone (bacterial isolates; S. maltophilia SMA018): >128 µg/mL | Amikacin MIC Alone (bacterial isolates; S. maltophilia SMA037): 64 µg/mL | MIC (bacterial isolates; Staphylococcus aureus, MRSA, read-out: Amikacin MIC Alone, S. aureus SA014 MRSA): 32 µg/mL (≈ 54.6 µM) | MIC (bacterial isolates; Staphylococcus aureus, MRSA, read-out: Amikacin MIC Alone, S. aureus SA025 MRSA): 32 µg/mL (≈ 54.6 µM) | MIC (bacterial isolates; Staphylococcus epidermidis, read-out: Amikacin MIC Alone, S. epidermidis SE002): 64 µg/mL (≈ 109 µM) | MIC (bacterial isolates; Staphylococcus epidermidis, read-out: Amikacin MIC Alone, S. epidermidis SE003): 32 µg/mL (≈ 54.6 µM) | MIC (bacterial isolates; Stenotrophomonas maltophilia, read-out: Amikacin MIC Alone, S. maltophilia SMA018): 128 µg/mL (≈ 219 µM) | MIC (bacterial isolates; Stenotrophomonas maltophilia, read-out: Amikacin MIC Alone, S. maltophilia SMA021): 128 µg/mL (≈ 219 µM) | MIC (bacterial isolates; Stenotrophomonas maltophilia, read-out: Amikacin MIC Alone, S. maltophilia SMA022): > 128 µg/mL | MIC (bacterial isolates; Stenotrophomonas maltophilia, read-out: Amikacin MIC Alone, S. maltophilia SMA036): > 128 µg/mL | MIC (bacterial isolates; Stenotrophomonas maltophilia, read-out: Amikacin MIC Alone, S. maltophilia SMA037): 128 µg/mL (≈ 219 µM) | MIC (bacterial isolates; Stenotrophomonas maltophilia, read-out: Amikacin MIC Alone, S. maltophilia SMA060): > 128 µg/mL | MIC (bacterial isolates; Stenotrophomonas maltophilia, read-out: Amikacin MIC Alone, S. maltophilia SMA063): > 128 µg/mL | MIC (bacterial isolates; Stenotrophomonas maltophilia, read-out: Amikacin MIC Alone, S. maltophilia SMA064): > 128 µg/mL | MIC ([1]; Acinetobacter baumannii, read-out: Amikacin MIC + Peptide, A. baumannii, peptide Deber A2KA2): 16 µg/mL | MIC ([1]; Acinetobacter baumannii, read-out: Amikacin MIC + Peptide, A. baumannii, peptide MBI 11B16CN): 4 µg/mL | MIC ([1]; Acinetobacter baumannii, read-out: Amikacin MIC + Peptide, A. baumannii, peptide MBI 27): 16 µg/mL | MIC ([1]; Acinetobacter baumannii, read-out: Amikacin MIC + Peptide, A. baumannii, peptide MBI 29F1): 16 µg/mL | MIC ([1]; Acinetobacter baumannii, read-out: Amikacin MIC Alone, A. baumannii): 32 µg/mL (≈ 54.6 µM) | Amikacin MIC + Peptide ([1]; B. cepacia, peptide MBI 29A3): 32 µg/mL | MIC ([1]; Burkholderia cepacia, read-out: Amikacin MIC + Peptide, B. cepacia, peptide MBI 27): 16 µg/mL | MIC ([1]; Burkholderia cepacia, read-out: Amikacin MIC + Peptide, B. cepacia, peptide MBI 29A3): 16 µg/mL | Amikacin MIC + Peptide ([1]; S. aureus MRSA, peptide MBI 11B16CN): 4 µg/mL | Amikacin MIC + Peptide ([1]; S. maltophilia, peptide MBI 11B16CN): 4 µg/mL | Amikacin MIC + Peptide ([1]; S. maltophilia, peptide MBI 21A2): 16 µg/mL | Amikacin MIC + Peptide ([1]; S. maltophilia, peptide MBI 26): 16 µg/mL | Amikacin MIC + Peptide ([1]; S. maltophilia, peptide MBI 29A3): 16 µg/mL | MIC ([1]; Staphylococcus aureus, MRSA, read-out: Amikacin MIC + Peptide, S. aureus MRSA, peptide Deber A2KA2): 0.125 µg/mL | MIC ([1]; Staphylococcus aureus, MRSA, read-out: Amikacin MIC + Peptide, S. aureus MRSA, peptide MBI 11B16CN): 8 µg/mL | MIC ([1]; Staphylococcus aureus, MRSA, read-out: Amikacin MIC + Peptide, S. aureus MRSA, peptide MBI 21A2): 2 µg/mL | MIC ([1]; Staphylococcus aureus, MRSA, read-out: Amikacin MIC + Peptide, S. aureus MRSA, peptide MBI 27): 16 µg/mL | MIC ([1]; Staphylococcus aureus, MRSA, read-out: Amikacin MIC + Peptide, S. aureus MRSA, peptide MBI 29F1): 16 µg/mL | MIC ([1]; Staphylococcus aureus, MRSA, read-out: Amikacin MIC Alone, S. aureus MRSA): 32 µg/mL (≈ 54.6 µM) | MIC ([1]; Stenotrophomonas maltophilia, read-out: Amikacin MIC + Peptide, S. maltophilia, peptide MBI 11B16CN): 8 µg/mL | MIC ([1]; Stenotrophomonas maltophilia, read-out: Amikacin MIC + Peptide, S. maltophilia, peptide MBI 21A2): 8 µg/mL | MIC ([1]; Stenotrophomonas maltophilia, read-out: Amikacin MIC + Peptide, S. maltophilia, peptide MBI 26): 8 µg/mL | MIC ([1]; Stenotrophomonas maltophilia, read-out: Amikacin MIC + Peptide, S. maltophilia, peptide MBI 29A3): 8 µg/mL | MIC ([1]; Stenotrophomonas maltophilia, read-out: Amikacin MIC + Peptide, S. maltophilia, peptide MBI 29F1): 8 µg/mL | MIC ([1]; Stenotrophomonas maltophilia, read-out: Amikacin MIC Alone, S. maltophilia): 128 µg/mL (≈ 219 µM) | MIC [2]: 64 µg/mL (≈ 109 µM) | Amikacin MIC Alone ([3]; E. faecium EFM004): 64 µg/mL and >128 µg/mL | MIC [3, 4]: 64 µg/mL (≈ 109 µM) | MIC [3, 5]: 128 µg/mL (≈ 219 µM) | MIC ([3]; Enterococcus faecium, read-out: Amikacin MIC Alone, E. faecium EFM020): 32 µg/mL (≈ 54.6 µM)
